Test results: PMC7397249, “Properly Substituted Cyclic Bis-(2-bromobenzylidene) Compounds Behaved as Dual p300/CARM1 Inhibitors and Induced Apoptosis in Cancer Cells” (Molecules, 2020)

Legend:
EZH2 [1] = assay: Western blot of H3K27me3 (EZH2) in MCF-7 cells; type: cell-based, human; details: 5 μM, 30 h
Procedure: (§1) In MCF-7 cells, the levels of acetyl-H3, acetyl-H4, H3K27me3, and H3R17me2 were detected by western blot analyses as functional tests for p300 (acH3 and acH4), EZH2 (H3K27me3) and CARM1 (H3R17me2) inhibition in cells, respectively (Figure 5).
(§2) The procedures were performed as described in [30, 31]. Primary antibodies used were: Ac-H3 (Millipore, Milan, Italy); Ac-H4 (Millipore, Milan, Italy); Ac-H3K9-14 (Diagenode, Ougrée, Belgium); Ac-α-tubulin (Sigma-Aldrich), H3K27me3 (Diagenode); H3R17me2 (Diagenode); EZH2 (Abcam, Cambridge, UK). H3 (Sigma-Aldrich), H4 (Abcam), GAPDH (Sigma) and ERKs (Santa Cruz, Biotechnology, TX, USA) were used to normalize the total protein extracts (see also Supplementary Material).

NB4 cells = assay: Cell cycle and apoptosis (sub-G1) analysis by FACS in NB4 cells; type: cell-based, human; details: 5 μM, 30 h
Procedure: (§3) Compounds 4a–n were tested at 5 μM for 30 h in NB4 […] and U937 AML cells among hematological cancers, and in MCF-7 breast cancer and SH-SY5Y neuroblastoma cells among solid cancers, to determine their effects in cell cycle and apoptosis induction.
(§4) In the same cell lines, the induction of apoptosis has been evaluated through the percentage of the sub-G1 peaks.
(§5) For colorimetric exclusion, the cells (2 × 10^5 cells/mL) were plated in multiwells in triplicate. After stimulations at different times and concentrations, cells were diluted in the ratio 1:1 in Trypan Blue (Sigma) and counted with an optical microscope. For cell cycle analyses, cells were plated (2 × 10^5 cells/mL) and were harvested, centrifuged at 1200 rpm for 5 min and resuspended in 500 μL of a hypotonic solution containing 1× PBS, Sodium Citrate 0.1%, 0.1% NP-40, RNAase A and […] Propidium Iodide (PI). After 30 min at room temperature (RT) in the dark, samples were acquired by FACS-Calibur (BD Bioscences, San Jose, CA, USA) using CellQuest software (BD Biosciences). The percentage in different phases of the cell cycle was determined by ModFit LT V3 software (Verity). All experiments were performed in triplicate. Cell death was measured as percentage of cells in sub-G1 phase as in [30].

p300 = assay: Western blot of acetylation marks (p300 inhibition) in NB4 cells; type: cell-based, human; details: 5 μM, 30 h
Procedure: (§6) Western blot analyses were carried out on NB4 and MCF-7 cells treated with a subset of compounds 4 (5 μM, 30 h), to confirm that the observed effects are due to modulation of p300, CARM1, and eventually EZH2 activities. Suberoylanilide hydroxamic acid (SAHA), a FDA-approved HDAC inhibitor [28], and GSK-126 [29], a well-known EZH2 inhibitor, were added as internal controls. In NB4 cells, the levels of acetyl-H3 (acH3) and acetyl-H4 (acH4) as well as those of acetyl-H3K9/14 (AcH3K9/14, see Supplementary material) and of the non-histone substrate acetyl-α-tubulin (Ac-Tubulin) were detected as an index of p300 inhibition (Figure 4). In the same cell line, the levels of H3K27me3, histone mark of the EZH2 catalytic activity (Figure 4), as well as the level of the EZH2 expression (see Supplementary material) have been determined. Last, the amount of H3R17me2, the functional read-out of CARM1 inhibition, was determined (Figure 4).
(§7) The procedures were performed as described in [30, 31]. Primary antibodies used were: Ac-H3 (Millipore, Milan, Italy); Ac-H4 (Millipore, Milan, Italy); Ac-H3K9-14 (Diagenode, Ougrée, Belgium); Ac-α-tubulin (Sigma-Aldrich), H3K27me3 (Diagenode); H3R17me2 (Diagenode); EZH2 (Abcam, Cambridge, UK). […]

EZH2 [2] = assay: Western blot of H3K27me3 (EZH2 catalytic activity) in NB4 cells; type: cell-based, human; details: 5 μM, 30 h
Procedure: as §6, §7

SH-SY5Y cells = assay: Cell cycle and apoptosis (sub-G1) analysis by FACS in SH-SY5Y cells; type: cell-based, human; details: 5 μM, 30 h
Procedure: as §3, §4, §5

[3] = Cell viability in non-cancer mesenchymal progenitor cells (differential toxicity); type: cell-based; details: human, MePR2B cells, control 100%, read-out: percentage of cell viability
Procedure: After treatment at 5 μM for 30 h, 4l and 4m reduced the percentage of cell viability to 61.2 ± 0.8 and 85.5 ± 3.7, respectively, in comparison with the control (100%).
as §5

CARM1 = assay: Western blot of H3R17me2 (CARM1) in MCF-7 cells; type: cell-based, human; details: 5 μM, 30 h
Procedure: as §1, §2

O=C1/C(=C/c2ccccc2Br)CN(Cc2ccccc2)C/C1=C\c1ccccc1Br [Compound 4e, 1-benzyl-3,5-bis((E)-2-bromobenzylidene)piperidin-4-one]
levels of H3K27me3 (EZH2 [1]): reduction of the H3K27me3 levels | induction of apoptosis, % sub-G1 peaks (NB4 cells): 30 to 40%

O=C1/C(=C/c2ccccc2Br)CN(CCc2ccccc2)C/C1=C\c1ccccc1Br [Compound 4f, 3,5-Bis((E)-2-bromobenzylidene)-1-phenethylpiperidin-4-one]
levels of acetyl-H3 (p300): less effective

O=C1/C(=C/c2ccccc2Br)CN(CCCc2ccccc2)C/C1=C\c1ccccc1Br [Compound 4g, 3,5-Bis((E)-2-bromobenzylidene)-1-(3-phenylpropyl)piperidin-4-one]
levels of acetyl-H3 (p300): less effective

O=C1/C(=C/c2ccccc2Br)CN(CC(=O)c2ccccc2)C/C1=C\c1ccccc1Br [Compound 4h, 3,5-Bis((E)-2-bromobenzylidene)-1-(2-oxo-2-phenylethyl)piperidin-4-one]
levels of H3K27me3 (EZH2 [1]): reduction of the H3K27me3 levels | levels of H3K27me3 (EZH2 [2]): reduction of the H3K27me3 levels | induction of apoptosis, % sub-G1 peaks (NB4 cells): 30 to 40% | effect on cell cycle phases (SH-SY5Y cells): arrest in the G1/S phase | induction of apoptosis, % sub-G1 peaks (SH-SY5Y cells): less than 20%

O=C1/C(=C/c2ccccc2Br)CN(CCCC(=O)c2ccccc2)C/C1=C\c1ccccc1Br [Compound 4j, 3,5-Bis((E)-2-bromobenzylidene)-1-(4-oxo-4-phenylbutyl)piperidin-4-one]
levels of H3K27me3 (EZH2 [1]): reduction of the H3K27me3 levels | effect on cell cycle phases (SH-SY5Y cells): arrest in the G1/S phase

O=C1/C(=C/c2ccccc2Br)CN(C(=O)c2ccccc2)C/C1=C\c1ccccc1Br [Compound 4k, 1-Benzoyl-3,5-bis((E)-2-bromobenzylidene)piperidin-4-one]
induction of apoptosis, % sub-G1 peaks (NB4 cells): 30 to 40%

O=C1/C(=C/c2ccccc2Br)CN(C(=O)Cc2ccccc2)C/C1=C\c1ccccc1Br [Compound 4l, 3,5-Bis((E)-2-bromobenzylidene)-1-(2-phenylacetyl)piperidin-4-one]
viability at 30 h, 5 µM [3]: 61.2 ± 0.8% | induction of apoptosis, % sub-G1 peaks (NB4 cells): 67% | effect on cell cycle phases (SH-SY5Y cells): arrest in the G1/S phase

O=C1/C(=C/c2ccccc2Br)CN(C(=O)CCc2ccccc2)C/C1=C\c1ccccc1Br [Compound 4m, 3,5-Bis((E)-2-bromobenzylidene)-1-(3-phenylpropanoyl)piperidin-4-one]
viability at 30 h, 5 µM [3]: 85.5 ± 3.7% | levels of H3K27me3 (EZH2 [1]): reduction of the H3K27me3 levels | levels of H3K27me3 (EZH2 [2]): reduction of the H3K27me3 levels | induction of apoptosis, % sub-G1 peaks (NB4 cells): 56% | levels of H3R17me2 (CARM1): most effective | effect on cell cycle phases (SH-SY5Y cells): arrest in the G1/S phase | induction of apoptosis, % sub-G1 peaks (SH-SY5Y cells): 17%

O=C1/C(=C/c2ccccc2Br)CN(C(=O)C=Cc2ccccc2)C/C1=C\c1ccccc1Br [Compound 4n, 3,5-Bis((E)-2-bromobenzylidene)-1-cinnamoylpiperidin-4-one]
levels of H3K27me3 (EZH2 [1]): reduction of the H3K27me3 levels
